We go through 20 molecules from US6867320B2, “Substituted phenylalkanoic acid derivatives and use thereof” (Asahi Kasei Pharma Corporation, priority 2002, dated 2005).

Assay [1] relates to LTB4 production from IgE-stimulated RBL-2H3 cells. Put plainly: Suppressing action on LTB4 production from IgE-stimulated RBL-2H3 cells. Type of assay: cell-based. The conditions noted are these: Rattus norvegicus, 10 min, IgE/DNP-BSA stimulated RBL-2H3 cells, read-out: LTB4 production suppression ratio. The source says: (§1) 2. Suppressing Action on PGD2 and LTB4 Production from IgE-Stimulated RBL-2H3 Cells
(§2) Suppressing action on PGD2 and LTB4 production caused by IgE as an allergic stimulant was investigated by the following method. Cells of RBL-2H3, which is a rat mastocytoma cell line (purchased from ATCC), were suspended in DEMEM medium (GIBCO) containing 10% fetal bovine serum (BioFluid), inoculated to each well of 48-well culture plate at a density of 2×10^4 cells/well and cultured overnight. Then, IgE antiserum directed to dinitrophenylated BSA (henceforth DNP-BSA) was further added to each well, and the cells were cultured for 30 minutes. Then, the medium was changed to DEMEM medium containing 0.5% fetal bovine serum, a test compound was added with each well, and DNP-BSA was further added at a final concentration of 100 ng/ml as a stimulant. Ten minutes after the stimulant was added, the culture supernatant was collected, and the PGD2 concentration and LTB4 concentration in the culture supernatant were measured by using EIA kit (CAYMAN). By using a well which was not added with the stimulant as a negative control and a well which was added only with the stimulant as a positive control, suppressing ratios on mediator production were calculated from the production amounts of the mediators in the well added with the test compound using the following equation. PGD2 or LTB4 production suppression ratio=[1−(C−B)/(A−B)]×100 • A: PGD2 or LTB4 production amount of positive control • B: PGD2 or LTB4 production amount of negative control • C: PGD2 or LTB4 production amount in well added with test compound
(§3) Further, as control compounds for comparison, reference compound (1), 3-(2-cyclohexylmethyloxy-1,1′-biphenyl-5-yl)propionic acid described in WO99/19291, reference compounds (2) and (3), [2-(5,6,7,8-tetrahydro-5,5,8,8-tetramethyl-2-naphthalenyl)methyloxy-1,1′-biphenyl-5-yl]carboxylic acid [reference compound (2)] and 3-[3′-carboxy-2-(5,6,7,8-tetrahydro-5,5,8,8-tetramethyl-2naphthalenyl)methyloxy-1,1′-biphenyl-6-yl]propionic acid [reference compound (3)] described in U.S. Pat. No. 5,391,817 and Japanese Patent Unexamined Publication (Kokai) No. 7-22399, respectively, were used, and activities thereof were similarly measured.

The test system of assay [2] is PGD2 production from IgE-stimulated RBL-2H3 cells. Put plainly: Suppressing action on PGD2 production from IgE-stimulated RBL-2H3 cells. It is filed as cell-based. As to conditions: Rattus norvegicus, 10 min, IgE/DNP-BSA stimulated RBL-2H3 cells, read-out: PGD2 production suppression ratio.
Text: as §1, §2, §3

Assay [3] deals with PGE2 production from IL-1β-stimulated MG-63 cells. Put plainly: Suppressing action on PGE2 production from IL-1β-stimulated MG-63 cells. It is filed as cell-based. As to conditions: Homo sapiens, IL-1β 1 ng/ml, 18 hours, read-out: PGE2 production suppression ratio. The method, boiled down:
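PGE2 in 18 h supernatants was quantified by EIA and expressed as % suppression relative to IL-1β-only and unstimulated controls. Cells were the MG-63 osteosarcoma line, plated at 2×10^4/well, given compound in 0.5% FBS EMEM, then 1 ng/ml IL-1β final.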

Assay [4] relates to zymosan-stimulated footpad edema. Put plainly: Mouse zymosan-stimulated footpad edema reaction. It is filed as in vivo. The conditions noted are these: ICR female mice, oral 0.1 to 500 mg/kg, compared with positive control group. On the procedure: 3. Suppressing Effect on Mouse Zymosan-stimulated Footpad Edema Reaction A suppressing effect on footpad edema caused by zymosan as an inflammatory stimulant was studied by the following method. Groups of ICR female mice (6- to 7-week old) each consisting of eight mice were used for the test. A test compound was suspended or dissolved in purified water containing 0.5% methylcellulose and orally administered to the test animals at 0.1 to 500 mg/0.2 ml/kg. To the control group, purified water containing 0.5% methylcellulose was administered in a similar manner, which was not added with a test compound. One hour after the administration of the test compound, 0.02 ml of a suspension of zymosan suspended in physiological saline (Otsuka Pharmaceutical) at 1 mg/ml was subcutaneously administered to right hind leg footpad of each mouse. One and two hours after the administration of the zymosan suspension, volume of the right hind leg footpad was measured by using an apparatus for measuring a volume of mouse hind leg footpad edema (Unicom). A difference of the volume of footpad measured above and the footpad volume before the administration of the test compound measured beforehand was regarded as a volume of the edema. For the volume of the edema at 1 hour or 2 hours after the zymosan administration, a graph was prepared by indicating time in abscissa and the edema volume in ordinate, and an edema volume AUC (area under the curve) was obtained up to 2 hours by calculation using the following equation. Edema volume AUC (1·hour)=1/2×1×A+1×(A+B)/2 • A: Edema volume 1 hour after zymosan administration • B: Edema volume 2 hour after zymosan administration A suppression ratio on edema of test compound was obtained by calculation using the following equation. Edema suppression ratio (%)=[1−B/A]×100 • A: Edema volume AUC of positive control • B: Edema volume AUC of test compound administered group (2) Measurement Results

In the case of `CNc1ccc2cc(-c3cc(CCC(=O)O)ccc3OCC3CCCC3)ccc2c1` [Compound 016, 3-{4-cyclopentylmethyloxy-3-[6-(N-methylamino)naphthalen-2-yl]phenyl}propionic acid], the inhibition at 0.4 µM in assay [1], in assay [2] and in assay [3] was at least 50% in each case.
As to `O=C(O)CCc1ccc(OCc2cccc(F)c2)c(-c2ccc3ccccc3c2)c1` [Compound 035, 3-[4-(3-fluorophenylmethyloxy)-3-(naphthalen-2-yl)phenyl]propionic acid], the inhibition at 0.4 µM in assay [1] and in assay [2] was at least 50% each time.
For `O=C(O)CCc1ccc(OC2CCCCC2)c(-c2ccc3ccccc3c2)c1` [Compound 045, 3-[4-cyclohexyloxy-3-(naphthalen-2-yl)phenyl]propionic acid], the inhibition at 0.4 µM in assay [1], in assay [2] and in assay [3] was at least 50% throughout.
On to `O=C(O)CCc1ccc(OCC2CCCC2)c(-c2ccc3cc(NCCO)ccc3c2)c1` [Compound 075, 3-{4-cyclopentylmethyloxy-3-[6-(2-hydroxyethylamino)naphthalen-2-yl]phenyl}propionic acid], for which the inhibition at 0.4 µM in assay [1], in assay [2] and in assay [3] was at least 50% in each case.
On to `O=C(O)CCc1ccc(OCC2CCCC2)c(-c2ccc3cc(NC(=O)c4ccco4)ccc3c2)c1` [Compound 081, 3-(4-cyclopentylmethyloxy-3-{6-[(furan-2-carbonyl)amino]naphthalen-2-yl}phenyl)propionic acid], for which the inhibition at 0.4 µM in assay [1], in assay [2] and in assay [3] was at least 50% throughout.
On to `O=C(O)CCc1ccc(OCc2ccc(Cl)cc2Cl)c(-c2ccc3[nH]ccc3c2)c1` [Compound 162, 3-[4-(2,4-dichlorophenylmethyloxy)-3-(1H-indol-5-yl)phenyl]propionic acid], for which the inhibition at 0.4 µM in assay [1], in assay [2] and in assay [3] was at least 50% in each case.
On to `O=C(O)CCc1ccc(OCCc2cccc(Cl)c2)c(-c2ccc3[nH]ccc3c2)c1` [Compound 211, 3-{4-[2-(3-chlorophenyl)ethyloxy]-3-(1H-indol-5-yl)phenyl}propionic acid], for which the inhibition at 0.4 µM in assay [1], in assay [2] and in assay [3] was at least 50% in each case.
Turning to `CCn1ccc2cc(-c3cc(CCC(=O)O)ccc3OCc3ccccc3Cl)ccc21` [Compound 250, 3-[4-(2-chlorophenylmethyloxy)-3-(1-ethyl-1H-indol-5-yl)phenyl]propionic acid], the inhibition at 0.4 µM in assay [1], in assay [2] and in assay [3] was at least 50% in each case.
With `Nc1nc2ccc(-c3cc(CCC(=O)O)ccc3OCC3CCCC3)cc2s1` [Compound 287, 3-[3-(2-aminobenzothiazol-6-yl)-4-cyclopentylmethyloxyphenyl]propionic acid], the inhibition at 0.4 µM in assay [1], in assay [2] and in assay [3] was at least 50% each time.
Turning to `CCCCOc1ccc(CCC(=O)O)cc1-c1ccc2nc(N)sc2c1` [Compound 291, 3-[3-(2-aminobenzothiazol-6-yl)-4-butyloxyphenyl]propionic acid], the “suppression of footpad edema caused by zymosan” value in assay [4] is given as “suppressed footpad edema”. For the same molecule, the inhibition at 0.4 µM in assay [3] was at least 50%.
Turning to `O=C(O)CCc1cc(F)c(OC2CCCC2)c(-c2ccc3[nH]ncc3c2)c1` [Compound 481, 3-[4-cyclopentyloxy-3-fluoro-5-(1H-indazol-5-yl)phenyl]propionic acid], the inhibition at 0.4 µM in assay [1], in assay [2] and in assay [3] was at least 50% each time.
For `Cn1ncc2cc(-c3cc(CCC(=O)O)cc(F)c3OC3CCCC3)ccc21` [Compound 483, 3-[4-cyclopentyloxy-3-fluoro-5-(1-methyl-1H-indazol-5-yl)phenyl]propionic acid], the inhibition at 0.4 µM in assay [1], in assay [2] and in assay [3] was at least 50% throughout.
For `Nc1cc(CCC(=O)O)cc(-c2ccc3[nH]ncc3c2)c1OC1Cc2ccccc2C1` [Compound 486, 3-[3-amino-4-(indan-2-yloxy)-5-(1H-indazol-5-yl)phenyl]propionic acid], the inhibition at 0.4 µM in assay [1], in assay [2] and in assay [3] was at least 50% each time.
As to `CCn1ncc2cc(-c3cc(CCC(=O)O)cc(N)c3OC3Cc4ccccc4C3)ccc21` [Compound 489, 3-[3-amino-5-(1-ethyl-1H-indazol-5-yl)-4-(indan-2-yloxy)phenyl]propionic acid], the inhibition at 0.4 µM in assay [1], in assay [2] and in assay [3] was at least 50% in each case.
For the molecule `Cn1ncc2cc(-c3cc(CCC(=O)O)cc(O)c3OC3Cc4ccccc4C3)ccc21` [Compound 569, 3-[4-(indan-2-yloxy)-3-hydroxy-5-(1-methyl-1H-indazol-5-yl)phenyl]propionic acid], the inhibition at 0.4 µM in assay [1], in assay [2] and in assay [3] was at least 50% throughout.
Turning to `Cc1cc(CCC(=O)O)cc(-c2ccc3c(cnn3C)c2)c1OC1CCCC1` [Compound 572, 3-[4-cyclopentyloxy-3-methyl-5-(1-methyl-1H-indazol-5-yl)phenyl]propionic acid], the inhibition at 0.4 µM in assay [1], in assay [2] and in assay [3] was at least 50% throughout.
As for `CN(C)c1cc(CCC(=O)O)cc(-c2ccc3c(cnn3C)c2)c1OC1Cc2ccccc2C1` [Compound 586, 3-[4-(indan-2-yloxy)-3-(N,N-dimethylamino)-5-(1-methyl-1H-indazol-5-yl)phenyl]propionic acid], the inhibition at 0.4 µM in assay [1], in assay [2] and in assay [3] was at least 50% in each case.
With `O=C(O)CCc1ccc(OCC2CCCCC2)c(-c2ccccc2)c1` [reference compound (1), 3-(2-cyclohexylmethyloxy-1,1′-biphenyl-5-yl)propionic acid, reference compound], the inhibition at 0.4 µM in assay [1] is -5.9%; in assay [2], -12.9%.
Take `CC1(C)CCC(C)(C)c2cc(COc3ccc(C(=O)O)cc3-c3ccccc3)ccc21` [reference compound (2), [2-(5,6,7,8-tetrahydro-5,5,8,8-tetramethyl-2-naphthalenyl)methyloxy-1,1′-biphenyl-5-yl]carboxylic acid, reference compound]: the inhibition at 0.4 µM in assay [1] was -15.3%; in assay [2], -17.6%.
Taken in the same sequence, the figures for `CC1(C)CCC(C)(C)c2cc(COc3cccc(CCC(=O)O)c3-c3cccc(C(=O)O)c3)ccc21` [reference compound (3), 3-[3′-carboxy-2-(5,6,7,8-tetrahydro-5,5,8,8-tetramethyl-2naphthalenyl)methyloxy-1,1′-biphenyl-6-yl]propionic acid, reference compound] were -6.3% and 2.1%.
